Laboratory results taken from the supplement of paper PMC10307832.

Columns and labels:
Assay in all cases: relative viability (nuclei count vs DMSO), 5 days (fraction); higher = more cells survive
Linsitinib + Vorinostat = compound: C[C@]1(O)C[C@@H](c2nc(-c3ccc4ccc(-c5ccccc5)nc4c3)c3c(N)nccn32)C1 [Linsitinib] + O=C(CCCCCCC(=O)Nc1ccccc1)NO [Vorinostat] (partner 1 µM)
In short: (§1)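 One day after seeding in 1536-well plates, lung cancer cell lines were dosed by pin tool. Dosing was either single-drug or a fixed anchor-drug dose plus five library-drug doses (not always all listed) in √10 steps. After 5 days, nuclei were stained in one fix-and-stain step and counted on 4× images, and relative viability is the nuclei count of treated wells over that of vehicle wells, given as the median of duplicate plates.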

Ispinesib + Palbociclib = compound: Cc1ccc(C(=O)N(CCCN)[C@@H](c2nc3cc(Cl)ccc3c(=O)n2Cc2ccccc2)C(C)C)cc1 [Ispinesib] + CC(=O)c1c(C)c2cnc(Nc3ccc(N4CCNCC4)cn3)nc2n(C2CCCC2)c1=O [Palbociclib] (partner 0.5 µM)
In short: as §1

Linsitinib + Lapatinib = compound: C[C@]1(O)C[C@@H](c2nc(-c3ccc4ccc(-c5ccccc5)nc4c3)c3c(N)nccn32)C1 [Linsitinib] + CS(=O)(=O)CCNCc1ccc(-c2ccc3ncnc(Nc4ccc(OCc5cccc(F)c5)c(Cl)c4)c3c2)o1 [Lapatinib] (partner 2 µM)
In short: as §1

Ispinesib + Linsitinib = compound: Cc1ccc(C(=O)N(CCCN)[C@@H](c2nc3cc(Cl)ccc3c(=O)n2Cc2ccccc2)C(C)C)cc1 [Ispinesib] + C[C@]1(O)C[C@@H](c2nc(-c3ccc4ccc(-c5ccccc5)nc4c3)c3c(N)nccn32)C1 [Linsitinib] (partner 1 µM)
In short: as §1

| Cell Line | relative viability (Linsitinib + Vorinostat; first compound 0.01 µM) | relative viability (Linsitinib + Vorinostat; first compound 0.03162 µM) | relative viability (Linsitinib + Vorinostat; first compound 0.1 µM) | relative viability (Linsitinib + Vorinostat; first compound 1 µM) | relative viability (Ispinesib + Palbociclib; first compound 0.001 µM) | relative viability (Ispinesib + Palbociclib; first compound 0.003162 µM) | relative viability (Ispinesib + Palbociclib; first compound 0.01 µM) | relative viability (Ispinesib + Palbociclib; first compound 0.03162 µM) | relative viability (Ispinesib + Palbociclib; first compound 0.1 µM) | relative viability (Linsitinib + Lapatinib; first compound 0.01 µM) | relative viability (Linsitinib + Lapatinib; first compound 0.03162 µM) | relative viability (Linsitinib + Lapatinib; first compound 0.1 µM) | relative viability (Linsitinib + Lapatinib; first compound 1 µM) | relative viability (Ispinesib + Linsitinib; first compound 0.001 µM) | relative viability (Ispinesib + Linsitinib; first compound 0.003162 µM) | relative viability (Ispinesib + Linsitinib; first compound 0.01 µM) | relative viability (Ispinesib + Linsitinib; first compound 0.03162 µM) | relative viability (Ispinesib + Linsitinib; first compound 0.1 µM) | relative viability (Linsitinib + Vorinostat; first compound 0.3162 µM) | relative viability (Linsitinib + Lapatinib; first compound 0.3162 µM) |
| --- | --- | --- | --- | --- | --- | --- | --- | --- | --- | --- | --- | --- | --- | --- | --- | --- | --- | --- | --- | --- |
| NCI-H650 | 0.438 | 0.359 | 0.432 | 0.394 | 0.301 | 0.309 | 0.361 | 0.324 | 0.335 | 0.701 | 0.926 | 0.871 | 0.646 | 0.995 | 0.958 | 0.887 | 0.358 | 0.245 |  |  |
| IA-LM | 0.975 | 0.829 | 1.06 | 0.499 |  |  |  |  |  | 0.962 | 1.02 | 0.854 | 0.437 | 0.493 | 0.567 | 0.996 | 0.549 | 0.158 | 0.315 | 0.61 |
| A-427 | 0.859 | 0.905 | 0.892 | 0.808 | 0.53 | 0.538 | 0.55 | 0.322 | 0.282 | 1.02 | 0.723 | 1.06 | 1.08 | 1.15 | 1.13 | 1.15 | 1.21 | 1.12 |  |  |
| NCI-H2347 | 0.677 | 0.583 | 0.591 | 0.57 | 0.406 | 0.388 | 0.423 | 0.395 | 0.419 | 0.821 | 0.998 | 0.969 | 0.772 | 1.01 | 1.04 | 1.13 | 0.805 | 0.913 | 0.444 | 0.461 |
| NCI-H1793 | 0.816 | 0.749 | 0.705 | 0.433 | 0.358 | 0.314 | 0.31 | 0.312 | 0.219 | 0.786 | 0.822 | 0.751 | 0.478 | 0.866 | 1.02 | 0.961 | 0.707 | 0.562 | 0.536 | 0.43 |
| NCI-H1792 |  |  |  |  | 0.725 | 0.762 | 0.859 | 0.686 | 0.301 | 0.903 | 0.847 | 0.706 | 0.649 | 0.45 | 0.52 | 0.492 | 0.25 | 0.392 |  | 0.667 |
| ChaGo-K-1 | 0.798 | 0.774 | 0.78 | 0.694 | 0.8 | 1.01 | 1.11 | 0.985 | 0.845 |  |  |  |  |  |  |  |  |  |  |  |
| NCI-H522 | 0.892 | 1 | 0.791 | 0.727 | 1 | 0.965 | 1.01 | 0.903 | 1.02 |  |  |  |  |  |  |  |  |  | 0.499 |  |
| NCI-H441 | 0.904 | 0.829 | 0.84 | 0.547 | 0.237 | 0.25 | 0.208 | 0.174 | 0.136 |  |  |  |  | 0.465 | 0.771 | 0.346 | 0.163 | 0.173 | 0.556 |  |
